For data set [1] the following is noted: blends, accelerated storage conditions.
The conditions of data set [2]: fumarate salt, crystalline powder; cited from earlier work.

Consider `OCCOCCN1CCN(C2=Nc3ccccc3Sc3ccccc32)CC1` [Quetiapine, 11-[4-[2-(2-hydroxyethoxy)ethyl]-1-piperazinyl]dibenzo[b,f][1,4]thiazepine], for which the “compatibility with tartaric acid” value in data set [1] was “significant compatibility problems”. The solubility in water result in data set [2] was “moderately soluble in water”.

The values are drawn from patent US20150231080A1, “PHARMACEUTICAL COMPOSITION COMPRISING AN ATYPICAL ANTIPSYCHOTIC AGENT AND METHOD FOR THE PREPARATION THEREOF” (PHARMATHEN S.A., priority 2012, published 2015).
